The NIST ThermoML archive (doi:10.1021/je050200w)

Assays:
[1] = 101 kPa, Liquid
[2] = xn = mol fraction of the nth substance listed; conditions: 101 kPa, Liquid

CCCCCCCCCCCO [1-undecanol]
[1]
Conditions	mass density [kg/m3]	viscosity [mPa·s]
293.15 K	832.2	17.28
298.15 K	828.8	13.72
303.15 K	825.4	11.52
308.15 K	821.7	9.35
313.15 K	818.6	7.841

CCCCCCCCCCCO [1-undecanol] + CCCCCCCCCCO
[2]
Conditions	mass density, 293.15 K [kg/m3]	mass density, 298.15 K [kg/m3]	mass density, 303.15 K [kg/m3]	mass density, 308.15 K [kg/m3]	mass density, 313.15 K [kg/m3]	viscosity, 293.15 K [mPa·s]	viscosity, 298.15 K [mPa·s]	viscosity, 303.15 K [mPa·s]	viscosity, 308.15 K [mPa·s]	viscosity, 313.15 K [mPa·s]
x2 = 0	832.2	828.8	825.4	821.7	818.6	17.28	13.72	11.52	9.35	7.841
x2 = 0.1007	832	828.7	825.2	821.6	818.2	16.88	13.52	11.27	9.368	7.805
x2 = 0.1997	831.5	828.1	824.8	821.4	818	16.68	13.31	11.08	9.233	7.778
x2 = 0.2999	831.4	828	824.6	821.2	817.8	16.14	13.23	10.89	9.057	7.655
x2 = 0.3998	831.2	827.8	824.4	821	817.5	16.08	12.88	10.7	8.909	7.579
x2 = 0.4997	831	827.6	824.2	820.8	817.3	15.59	12.79	10.51	8.76	7.452
x2 = 0.5978	830.8	827.4	824	820.6	817.1	15.59	12.58	10.34	8.652	7.323
x2 = 0.6999	830.5	827.1	823.7	820.3	816.9	15.28	12.35	10.14	8.504	7.249
x2 = 0.7989	830.4	827	823.5	820.2	816.7	14.5	12.12	9.958	8.357	7.068
x2 = 0.8995	830.1	826.8	823.3	819.9	816.5	14.76	11.98	9.777	8.185	6.94

CCCCCCCCCCCO [1-undecanol] + CCCCCCCCCO
[2]
Conditions	mass density, 293.15 K [kg/m3]	mass density, 298.15 K [kg/m3]	mass density, 303.15 K [kg/m3]	mass density, 308.15 K [kg/m3]	mass density, 313.15 K [kg/m3]	viscosity, 293.15 K [mPa·s]	viscosity, 298.15 K [mPa·s]	viscosity, 303.15 K [mPa·s]	viscosity, 308.15 K [mPa·s]	viscosity, 313.15 K [mPa·s]
x2 = 0	832.2	828.8	825.4	821.7	818.6	17.28	13.72	11.52	9.35	7.841
x2 = 0.1002	831.7	828.3	824.9	821.5	818.1	16.58	13.43	11.15	9.247	7.609
x2 = 0.1996	831.3	827.9	824.5	821.1	817.7	16.08	12.83	10.73	8.926	7.373
x2 = 0.3004	830.9	827.5	824.1	820.7	817.3	15.38	12.55	10.37	8.681	7.298
x2 = 0.4001	830.6	827.2	823.8	820.3	816.9	14.91	11.98	9.973	8.333	7.04
x2 = 0.5	830.2	826.8	823.4	819.9	816.5	14.29	11.52	9.577	8.014	6.872
x2 = 0.6002	829.8	826.4	823	819.5	816.1	13.61	11.32	9.2	7.71	6.627
x2 = 0.6994	830.1	826.6	823.2	819.7	816.3	12.84	10.55	8.746	7.333	6.267
x2 = 0.7995	829.1	825.6	822.2	818.8	815.3	12.68	10.35	8.272	7.133	6.138
x2 = 0.8988	–	–	–	818.1	–	–	–	–	6.897	–
x2 = 0.8997	828.4	825	821.5	–	814.6	12.13	9.929	8.195	–	5.93

CCCCCCCCCCCO [1-undecanol] + CCCCCCCCO
[2]
Conditions	mass density, 293.15 K [kg/m3]	mass density, 298.15 K [kg/m3]	mass density, 303.15 K [kg/m3]	mass density, 308.15 K [kg/m3]	mass density, 313.15 K [kg/m3]	viscosity, 293.15 K [mPa·s]	viscosity, 298.15 K [mPa·s]	viscosity, 303.15 K [mPa·s]	viscosity, 308.15 K [mPa·s]	viscosity, 313.15 K [mPa·s]
x2 = 0	832.2	828.8	825.4	821.7	818.6	17.28	13.72	11.52	9.35	7.841
x2 = 0.1003	831.5	828.1	824.8	821.3	817.8	16.4	13.35	10.95	9.118	7.665
x2 = 0.2001	831	827.6	824.2	820.7	817.3	15.21	12.54	10.36	8.645	7.35
x2 = 0.2998	830.5	827	823.6	820.2	816.8	14.4	11.97	9.808	8.207	6.995
x2 = 0.4001	–	–	822.9	–	–	–	–	9.281	–	–
x2 = 0.4002	829.7	826.3	–	819.5	816	13.8	11.23	–	7.773	6.652
x2 = 0.4999	829	825.6	822.2	818.8	815.3	12.78	10.64	8.745	7.392	6.336
x2 = 0.5998	828.3	824.9	821.5	818.1	814.6	12.19	9.948	8.252	6.989	5.991
x2 = 0.6998	827.7	824.3	820.8	817.4	813.9	10.95	9.276	7.691	6.49	5.615
x2 = 0.8	826.9	823.5	820.1	816.6	813.1	10.24	8.693	7.271	6.137	5.295
x2 = 0.8999	826.2	822.8	819.3	815.8	812.3	9.416	8.002	6.723	5.728	4.957

CCCCCCCCCCO [decan-1-ol]
[1]
Conditions	mass density [kg/m3]	viscosity [mPa·s]
283.15 K	836.6	22.06
288.15 K	833.3	17.99
293.15 K	829.9	14.39
298.15 K	826.5	11.74
303.15 K	823	9.561
308.15 K	819.6	8
313.15 K	816.3	6.831

CCCCCCCCCCO [decan-1-ol] + CCCCCCCCCCCO
[2], x1 = 1
Conditions	mass density [kg/m3]	viscosity [mPa·s]
293.15 K	829.9	14.39
298.15 K	826.5	11.74
303.15 K	823	9.561
308.15 K	819.6	8
313.15 K	816.3	6.831

CCCCCCCCCCO [decan-1-ol] + CCCCCCCCCO
[2], x2 = 0
Conditions	mass density [kg/m3]	viscosity [mPa·s]
283.15 K	836.6	22.06
288.15 K	833.3	17.99
293.15 K	829.9	14.39
298.15 K	826.5	11.74
303.15 K	823	9.561
308.15 K	819.6	8
313.15 K	816.3	6.831

CCCCCCCCCO [nonan-1-ol]
[1]
Conditions	mass density [kg/m3]	viscosity [mPa·s]
283.15 K	835	17.44
288.15 K	831.5	14.27
293.15 K	828.1	11.63
298.15 K	824.7	9.519
303.15 K	821.3	7.806
308.15 K	817.8	6.604
313.15 K	814.3	5.668

CCCCCCCCCO [nonan-1-ol] + CCCCCCCCCCCO
[2], x1 = 1
Conditions	mass density [kg/m3]	viscosity [mPa·s]
293.15 K	828.1	11.63
298.15 K	824.7	9.519
303.15 K	821.3	7.806
308.15 K	817.8	6.604
313.15 K	814.3	5.668

CCCCCCCCO [octan-1-ol]
[1]
Conditions	mass density [kg/m3]	viscosity [mPa·s]
283.15 K	832.1	13.49
288.15 K	828.6	10.87
293.15 K	825.2	8.944
298.15 K	821.9	7.498
303.15 K	818.4	6.273
308.15 K	815	5.342
313.15 K	811.4	4.54

CCCCCCCCO [octan-1-ol] + CCCCCCCCCCCO
[2], x1 = 1
Conditions	mass density [kg/m3]	viscosity [mPa·s]
293.15 K	825.2	8.944
298.15 K	821.9	7.498
303.15 K	818.4	6.273
308.15 K	815	5.342
313.15 K	811.4	4.54

CCCCCCCCO [octan-1-ol] + CCCCCCCCCCO
[2], x1 = 1
Conditions	mass density [kg/m3]	viscosity [mPa·s]
283.15 K	832.1	13.49
288.15 K	828.6	10.87
293.15 K	825.2	8.944
298.15 K	821.9	7.498
303.15 K	818.4	6.273
308.15 K	815	5.342
313.15 K	811.4	4.54

CCCCCCCCO [octan-1-ol] + CCCCCCCCCO
[2], x1 = 1
Conditions	mass density [kg/m3]	viscosity [mPa·s]
283.15 K	832.1	13.49
288.15 K	828.6	10.87
293.15 K	825.2	8.944
298.15 K	821.9	7.498
303.15 K	818.4	6.273
308.15 K	815	5.342
313.15 K	811.4	4.54
